According to PubChem BioAssay AID1963866 (Molecular Pharmacology Branch, DTP, NCI, 2024):

Test system: PDC KRAS tumor spheroids with HUVEC/MSC, viability
Assay: Anticancer human tumor 349418-098-R-PDC patient-derived lung adenocarcinoma cell line growth inhibition [KRAS2]
Settings: for IC50: curve of first compound; for viability, T/C: stronger effect = lower value
Procedure, shortened: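 Combination screen of spheroid viability in tumor-cell co-cultures with endothelial (HUVEC) and mesenchymal stem cell stroma. Each agent was tested in half-log dilutions, topping at clinical Cmax or at 10 microM without a known Cmax.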

[1] = second compound 0.1 µM, first compound 0.0316 µM
[2] = second compound 0.1 µM, first compound 0.1 µM
[3] = second compound 0.1 µM, first compound 0.316 µM
[4] = second compound 0.1 µM, first compound 1 µM
[5] = second compound 0.1 µM, first compound 3.16 µM
[6] = second compound 0.1 µM, first compound 10 µM
[7] = second compound 0.316 µM, first compound 0.0316 µM
[8] = second compound 0.316 µM, first compound 0.1 µM
[9] = second compound 0.316 µM, first compound 0.316 µM
[10] = second compound 0.316 µM, first compound 1 µM
[11] = second compound 0.316 µM, first compound 3.16 µM
[12] = second compound 0.316 µM, first compound 10 µM
[13] = second compound 1 µM, first compound 0.0316 µM
[14] = second compound 1 µM, first compound 0.1 µM
[15] = second compound 1 µM, first compound 0.316 µM
[16] = second compound 1 µM, first compound 1 µM
[17] = second compound 1 µM, first compound 3.16 µM
[18] = second compound 1 µM, first compound 10 µM
[19] = second compound 3.16 µM, first compound 0.0316 µM
[20] = second compound 3.16 µM, first compound 0.1 µM
[21] = second compound 3.16 µM, first compound 0.316 µM
[22] = second compound 3.16 µM, first compound 1 µM
[23] = second compound 3.16 µM, first compound 3.16 µM
[24] = second compound 3.16 µM, first compound 10 µM
[25] = second compound 10 µM, first compound 0.0316 µM
[26] = second compound 10 µM, first compound 0.1 µM
[27] = second compound 10 µM, first compound 0.316 µM
[28] = second compound 10 µM, first compound 1 µM
[29] = second compound 10 µM, first compound 3.16 µM
[30] = second compound 10 µM, first compound 10 µM
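Further: spheroids exposed to compounds for seven days before readout.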

`COC(=O)c1ccc2c(C(=Nc3ccc(N(C)C(=O)CN4CCN(C)CC4)cc3)c3ccccc3)c(O)[nH]c2c1` + CC1OCC2(CCN(c3cnc(Sc4ccnc(N)c4Cl)c(N)n3)CC2)C1N showed an IC50 (second compound 0.1 µM) of 1450 nM, an IC50 (second compound 0.316 µM) of 1460 nM and an IC50 (second compound 1 µM) of 1230 nM. It also gave an IC50 (second compound 3.16 µM) of 1060 nM, an IC50 (second compound 10 µM) of 600 nM and a viability, T/C [1] of 100%. It also gave a viability, T/C [2] of 104%, a viability, T/C [3] of 82.3% and a viability, T/C [4] of 68.1%. The viability, T/C [5] was 12.1%, the viability, T/C [6] was 15.3% and the viability, T/C [7] was 102%. It also gave a viability, T/C [8] of 93.3%, a viability, T/C [9] of 92.5% and a viability, T/C [10] of 68.7%. It also gave a viability, T/C [11] of 7.79%, a viability, T/C [12] of 14.9% and a viability, T/C [13] of 82.6%. For the same compound, the viability, T/C [14] was 114%, the viability, T/C [15] was 71.5% and the viability, T/C [16] was 63.6%. It also gave a viability, T/C [17] of 12.2%, a viability, T/C [18] of 12.3% and a viability, T/C [19] of 79.2%. The viability, T/C [20] was 101%, the viability, T/C [21] was 75.3% and the viability, T/C [22] was 54.3%. The viability, T/C [23] was 14%, the viability, T/C [24] was 11.5% and the viability, T/C [25] was 81.2%. For the same compound, the viability, T/C [26] was 75.4%, the viability, T/C [27] was 61.5% and the viability, T/C [28] was 42.2%. The viability, T/C [29] was 14.8% and the viability, T/C [30] was 7.52%.
In the case of `COc1cc(Nc2ncc3c(n2)-c2ccc(Cl)cc2C(c2c(F)cccc2OC)=NC3)ccc1C(=O)O` + CC1OCC2(CCN(c3cnc(Sc4ccnc(N)c4Cl)c(N)n3)CC2)C1N, the IC50 (second compound 0.1 µM) is reported as 43.1 nM, the IC50 (second compound 0.316 µM) is reported as 43.6 nM and the IC50 (second compound 1 µM) is reported as 50.2 nM. The IC50 (second compound 3.16 µM) was under 31.6 nM, the IC50 (second compound 10 µM) was 33.6 nM and the viability, T/C [1] was 56.5%. It also gave a viability, T/C [2] of 32.4%, a viability, T/C [3] of 32.4% and a viability, T/C [4] of 40.1%. For the same compound, the viability, T/C [5] was 30.8%, the viability, T/C [6] was 24% and the viability, T/C [7] was 57.4%. The viability, T/C [8] was 27.8%, the viability, T/C [9] was 38.8% and the viability, T/C [10] was 26.4%. It also gave a viability, T/C [11] of 40.2%, a viability, T/C [12] of 20.4% and a viability, T/C [13] of 57.4%. It also gave a viability, T/C [14] of 35.4%, a viability, T/C [15] of 39% and a viability, T/C [16] of 38.1%. The viability, T/C [17] was 27.3%, the viability, T/C [18] was 25% and the viability, T/C [19] was 39.4%. The viability, T/C [20] was 36.3%, the viability, T/C [21] was 28% and the viability, T/C [22] was 28.7%. The viability, T/C [23] was 32.9%, the viability, T/C [24] was 28.4% and the viability, T/C [25] was 51%. The viability, T/C [26] was 33.5%, the viability, T/C [27] was 32.8% and the viability, T/C [28] was 31.1%. The viability, T/C [29] was 31.4% and the viability, T/C [30] was 27%.
`O=C(c1cc(Cc2n[nH]c(=O)c3ccccc23)ccc1F)N1CCN(C(=O)C2CC2)CC1` + CC1OCC2(CCN(c3cnc(Sc4ccnc(N)c4Cl)c(N)n3)CC2)C1N gave an IC50 (second compound 0.1 µM) of 4710 nM, an IC50 (second compound 0.316 µM) of 3270 nM and an IC50 (second compound 1 µM) of 4240 nM. The IC50 (second compound 3.16 µM) was 2800 nM, the IC50 (second compound 10 µM) was 1450 nM and the viability, T/C [1] was 95.9%. For the same compound, the viability, T/C [2] was 89.7%, the viability, T/C [3] was 89% and the viability, T/C [4] was 81.3%. It also gave a viability, T/C [5] of 63.5%, a viability, T/C [6] of 25.3% and a viability, T/C [7] of 78.8%. It also gave a viability, T/C [8] of 82.6%, a viability, T/C [9] of 77.3% and a viability, T/C [10] of 78.5%. The viability, T/C [11] was 50.6%, the viability, T/C [12] was 29.2% and the viability, T/C [13] was 107%. For the same compound, the viability, T/C [14] was 97.3%, the viability, T/C [15] was 81.8% and the viability, T/C [16] was 59.9%. It also gave a viability, T/C [17] of 66.7%, a viability, T/C [18] of 33% and a viability, T/C [19] of 90.8%. It also gave a viability, T/C [20] of 84%, a viability, T/C [21] of 68.6% and a viability, T/C [22] of 70.6%. For the same compound, the viability, T/C [23] was 48.3%, the viability, T/C [24] was 23.9% and the viability, T/C [25] was 80.9%. For the same compound, the viability, T/C [26] was 72.8%, the viability, T/C [27] was 59.2% and the viability, T/C [28] was 56.6%. It also gave a viability, T/C [29] of 44.1% and a viability, T/C [30] of 29.7%.
